Our source for the inhibition values is patent publication US12428415B2, “Matriptase 2 inhibitors and uses thereof” (Disc Medicine, Inc., priority 2018, dated 2025).

One assay deals with T1, Human Recombinant Matriptase 2 (Homo sapiens, UniProt Q8IU80).
T1 construct: purchased Enzo Life Sciences (an in-house preparation was also used) ALX-201-752-1
T1 sequence (Q8IU80 1-811): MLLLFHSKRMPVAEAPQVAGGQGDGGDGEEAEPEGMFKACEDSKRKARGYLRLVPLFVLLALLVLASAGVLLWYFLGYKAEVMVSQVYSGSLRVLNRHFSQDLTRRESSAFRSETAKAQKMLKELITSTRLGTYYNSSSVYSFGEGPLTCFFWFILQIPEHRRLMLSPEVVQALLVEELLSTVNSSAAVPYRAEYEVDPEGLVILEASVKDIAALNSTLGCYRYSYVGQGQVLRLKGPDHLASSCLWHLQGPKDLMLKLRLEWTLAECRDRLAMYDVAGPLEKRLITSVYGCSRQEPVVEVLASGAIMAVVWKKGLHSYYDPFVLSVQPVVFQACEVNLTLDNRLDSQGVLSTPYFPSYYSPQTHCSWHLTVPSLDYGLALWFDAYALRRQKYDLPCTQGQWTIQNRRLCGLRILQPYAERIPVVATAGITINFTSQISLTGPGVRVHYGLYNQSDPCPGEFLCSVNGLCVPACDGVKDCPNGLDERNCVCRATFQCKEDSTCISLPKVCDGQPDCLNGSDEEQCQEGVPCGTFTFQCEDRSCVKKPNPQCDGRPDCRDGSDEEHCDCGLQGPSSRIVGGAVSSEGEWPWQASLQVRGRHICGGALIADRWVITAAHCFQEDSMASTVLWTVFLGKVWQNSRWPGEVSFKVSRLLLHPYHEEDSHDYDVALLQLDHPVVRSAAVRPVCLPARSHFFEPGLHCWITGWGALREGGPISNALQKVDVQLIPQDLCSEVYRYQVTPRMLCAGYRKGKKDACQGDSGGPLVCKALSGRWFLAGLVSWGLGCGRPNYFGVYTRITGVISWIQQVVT
Put plainly: Matriptase 2 fluorescence based inhibition assay, Method A (100 mM TRIS pH 9, 1 mg/mL BSA). The format is biochemical. The note with it: 1 uM compound; Assay Used = A; read-out: Mar-2 % inhibition at 1 uM. A digest of the protocol:
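At 25° C in 100 mM TRIS pH 9 with 1 mg/mL BSA and 1% DMSO, compounds were preincubated 30 min with 7 nM commercial or 15 nM in-house protein before adding 100 μM Boc-Gln-Ala-Arg-7-amido-4-methyl coumarin. Fluorescence at 360/480 nm after 60 min; single points at 1 and 10 μM, IC50 by variable-slope nonlinear regression.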
For `COc1ccc2cc(Cn3c(C(=O)N[C@H]4CC[C@H](N)CC4)cc4ccc(C(=N)N)cc43)ccc2c1` [Compound I-408], the inhibition at 1 µM lay within 50 to 75%.

The assay is the same for the next values; noted with them: 1 uM; Assay Used A; read-out: Mar-2 % inhibition at 1 uM.
For the molecule `CCCCOC(=O)NC(=N)c1ccc2cc(C(=O)Nc3cccc(N4CCCC4)c3)n(Cc3ccc(C(N)=O)cc3)c2c1` [Compound I-160], the inhibition at 1 µM fell in the range of 0 to 25%.

Consider `N=C(N)c1ccc2cc(C(=O)NC3CCN(C(=O)CCN)CC3)n(Cc3ccc(C(F)(F)F)cc3)c2c1` [Compound I-8, N-(1-(3-aminopropanoyl)piperidin-4-yl)-6-carbamimidoyl-1-(4-(trifluoromethyl)benzyl)-1H-indole-2-carboxamide], for which the inhibition at 1 µM lay in the range of 25 to 50%.

On to `N=C(N)c1ccc2cc(C(=O)Nc3cccc(-c4ccccc4)c3)n(Cc3ccc(C(N)=O)cc3)c2c1` [Compound I-151], for which the inhibition at 1 µM lay within 0 to 25%.

Take `N=C(N)c1ccc2cc(C(=O)NCc3ccc(N4CCCC4)cc3)n(Cc3ccc(C(N)=O)cc3)c2c1` [Compound I-112]: the inhibition at 1 µM was 25 to 50%.

Take `CC(C)[C@H](NC(=O)c1cc2ccc(C(=N)N)cc2n1Cc1ccc(C(N)=O)cc1)c1ccccc1` [Compound I-82]: the inhibition at 1 µM lay within 0 to 25%.

`CC(C)c1ccc(Cn2c(C(=O)NC3CCC(F)(F)CC3)cc3ccc(C(=N)N)cc32)cc1` [Compound I-15]: the inhibition at 1 µM lay within 0 to 25%.

`N=C(N)c1ccc2cc(C(=O)Nc3ccc(C(=O)N4CCCC4)cc3)n(Cc3ccc(C(N)=O)cc3)c2c1` [Compound I-78]: the inhibition at 1 µM was in the range of 0 to 25%.

In the case of `CC(C)COC(=O)NC(=N)c1ccc2cc(C(=O)Nc3cccc(N4CCCC4)c3)n(Cc3ccc(C(N)=O)cc3)c2c1` [Compound I-147], the inhibition at 1 µM fell in the range of 0 to 25%.

With `CC1CCC(NC(=O)c2cc3ccc(C(=N)N)cc3n2CCS(=O)(=O)c2ccccc2)CC1` (centres unmarked) [Compound I-46], the inhibition at 1 µM was 0 to 25%.

In the case of `CC(C)[C@@H](NC(=O)OC(C)(C)C)C(=O)O/N=C(\N)c1ccc2cc(C(=O)Nc3cccc(N4CCCC4)c3)n(Cc3ccc(C(N)=O)cc3)c2c1` [Compound I-157, (R)-tert-butyl (1-(((amino(1-(4-carbamoylbenzyl)-2-((3-(pyrrolidin-1-yl)phenyl)-carbamoyl)-1H-indol-6-yl)methylene)amino)oxy)-3-methyl-1-oxobutan-2-yl)carbamate], the inhibition at 1 µM lay within 0 to 25%.

Regarding `N=C(N)c1ccc2c([N+](=O)[O-])c(C(=O)N[C@H]3CC[C@H](N)CC3)n(CCS(=O)(=O)c3ccccc3)c2c1` [Compound I-55, N-((1r,4r)-4-Aminocyclohexyl)-6-carbamimidoyl-3-nitro-1-(2-(phenylsulfonyl)ethyl)-1H-indole-2-carboxamide], the inhibition at 1 µM is 0 to 25%.

For `N=C(N)c1ccc2cc(C(=O)Nc3cc(N4CCCC4)ccc3F)n(Cc3ccc(C(N)=O)cc3)c2c1` [Compound I-152], the inhibition at 1 µM is 0 to 25%.

For `CCOC(=O)c1ccc(Cn2c(C(=O)N[C@H]3CC[C@H](N)CC3)cc3ccc(C(=N)N)cc32)cc1` [Compound I-22, Ethyl 4-((2-(((1r,4r)-4-aminocyclohexyl)carbamoyl)-6-carbamimidoyl-1H-indol-1-yl)methyl)-benzoate], the inhibition at 1 µM was in the range of 25 to 50%.

Regarding `C[C@@H](NC(=O)c1cc2ccc(C(=N)N)cc2n1Cc1ccc(C(N)=O)cc1)c1ccccc1` [Compound I-70], the inhibition at 1 µM was 0 to 25%.

In the case of `COc1ccc(CCn2c(C(=O)N[C@H]3CC[C@H](N)CC3)cc3ccc(C(=N)N)cc32)cc1` [Compound I-32], the inhibition at 1 µM was in the range of 25 to 50%.

Regarding `N=C(N)c1ccc2cc(C(=O)Nc3ccc4[nH]cnc4c3)n(Cc3ccc(C(N)=O)cc3)c2c1` [Compound I-74], the inhibition at 1 µM was 0 to 25%.

Staying with this assay, now noted: at 1 uM; Assay Used = A; read-out: Mar-2 % inhibition at 1 uM.
Turning to `N=C(N)c1ccc2cc(C(=O)N3CCC(F)(F)CC3)n(Cc3ccc(C(F)(F)F)cc3)c2c1` [Compound I-283], the inhibition at 1 µM was in the range of 0 to 25%.

As to `N=C(N)c1ccc2cc(C(=O)Nc3nc4ccccc4s3)n(Cc3ccc(C(N)=O)cc3)c2c1` [Compound I-265], the inhibition at 1 µM lay within 0 to 25%.

In the case of `N=C(N)c1ccc2cc(C(=O)N3CC[C@@H](F)C3)n(Cc3ccc(Oc4ccccc4)cc3)c2c1` [Compound I-313], the inhibition at 1 µM fell in the range of 0 to 25%.

Turning to `N=C(N)c1ccc2cc(C(=O)N3CCC(CCO)CC3)n(Cc3ccc(C(F)(F)F)cc3)c2c1` [Compound I-280], the inhibition at 1 µM is 0 to 25%.

In the case of `N=C(N)c1ccc2cc(C(=O)N[C@]34CC5CC(C[C@@](O)(C5)C3)C4)n(Cc3ccc(C(N)=O)cc3)c2c1` [Compound I-198], the inhibition at 1 µM fell in the range of 0 to 25%.

For the molecule `N=C(N)c1ccc2cc(C(=O)NC3CC=CCC3)n(Cc3ccc(NC(=O)CCN)cc3)c2c1` (centres unmarked) [Compound I-264, 1-(4-(3-Aminopropanamido)benzyl)-6-carbamimidoyl-N-(cyclohex-3-en-1-yl)-1H-indole-2-carboxamide], the inhibition at 1 µM lay within 0 to 25%.

In the case of `CCNC(=O)c1ccc(Cn2c(C(=O)N3CCC(F)CC3)cc3ccc(C(=N)N)cc32)cc1` [Compound I-390], the inhibition at 1 µM lay within 0 to 25%.

As to `N=C(N)c1ccc2cc(C(=O)NC3Cc4ccccc4C3)n(Cc3ccc(C(N)=O)cc3)c2c1` [Compound I-201], the inhibition at 1 µM lay within 0 to 25%.

Regarding `N=C(N)c1ccc2cc(C(=O)N3CCC(C(=O)NCCCN)CC3)n(CCc3ccccc3)c2c1` [Compound I-358], the inhibition at 1 µM fell in the range of 25 to 50%.

For the molecule `N=C(N)c1ccc2cc(C(=O)NC34CC5CC(CC(O)(C5)C3)C4)n(Cc3ccc(Oc4ccc(F)cc4)cc3)c2c1` [Compound I-244], the inhibition at 1 µM was in the range of 25 to 50%.

Take `CCOC(=O)CCCC1CCN(C(=O)c2cc3ccc(C(=N)N)cc3n2Cc2ccc(C(F)(F)F)cc2)CC1` [Compound I-281]: the inhibition at 1 µM was in the range of 0 to 25%.

For `N=C(N)c1ccc2cc(C(=O)N3CCC(F)CC3)n(Cc3ccc(OC(F)(F)F)cc3)c2c1` [Compound I-289], the inhibition at 1 µM lay in the range of 0 to 25%.

For the molecule `N=C(N)c1ccc2cc(C(=O)N[C@H]3c4ccccc4C[C@H]3O)n(Cc3ccc(C(N)=O)cc3)c2c1` [Compound I-204], the inhibition at 1 µM lay within 0 to 25%.

In the case of `CN(C)C(=O)c1ccc(Cn2c(C(=O)N3CCC(F)(F)C3)cc3ccc(C(=N)N)cc32)cc1` [Compound I-386], the inhibition at 1 µM lay within 0 to 25%.

As for `N=C(N)c1ccc2c(N)c(C(=O)N3CCc4ccccc4C3)n(CCS(=O)(=O)c3ccccc3)c2c1` [Compound I-352], the inhibition at 1 µM fell in the range of 0 to 25%.

With `CC1CCN(C(=O)c2cc3ccc(C(=N)N)cc3n2CCS(=O)(=O)c2ccccc2)CC1` [Compound I-340], the inhibition at 1 µM lay within 0 to 25%.

Take `C[C@@H](O)CNC(=O)c1cc2ccc(C(=N)N)cc2n1Cc1ccc(C(N)=O)cc1` [Compound I-207]: the inhibition at 1 µM lay in the range of 0 to 25%.

Regarding `N=C(N)c1ccc2cc(C(=O)NC3CCC(F)(F)CC3)n(Cc3cccc(NC(=O)CCN)c3)c2c1` [Compound I-260, 1-(3-(3-Aminopropanamido)benzyl)-6-carbamimidoyl-N-(4,4-difluorocyclohexyl)-1H-indole-2-carboxamide], the inhibition at 1 µM lay within 0 to 25%.

Take `N=C(N)c1ccc2cc(C(=O)N3CCC(CCN)CC3)n(S(=O)(=O)Cc3ccccc3)c2c1` [Compound I-336]: the inhibition at 1 µM is 0 to 25%.

As to `N=C(N)c1ccc2cc(C(=O)N3CCC(CCN)CC3)n(CCCN)c2c1` [Compound I-274], the inhibition at 1 µM lay in the range of 25 to 50%.

Consider `N=C(N)c1ccc2cc(C(=O)N[C@H]3CC[C@H](N)CC3)n(Cc3ccc(N)cc3)c2c1` [Compound I-261, 1-(4-Aminobenzyl)-N-((1r,4r)-4-aminocyclohexyl)-6-carbamimidoyl-1H-indole-2-carboxamide], for which the inhibition at 1 µM lay within 25 to 50%.
